Assay results: US3970648A, “2-[2-(5-Nitro-2-furyl)vinyl]-4-(anilino)quinazolines” (Diamond Shamrock Corporation, priority 1974, dated 1976)

What was measured:
Assay type in all cases: cell-based
Staphylococcus aureus = test: Bactericide test, Staphylococcus aureus (agar streak plate); settings: Staphylococcus aureus
Text: (§1) Test formulations were examined for bactericidal and/or bacteriostatic activity against the test organisms shown in Tables A and B. These organisms were chosen as being representative of commercially important pathogens affecting animal agriculture. The antibiotic chlortetracycline was chosen as a positive control, since it has a broad spectrum of activity against a large number of organisms, and its activity can be used for comparative purposes.
(§2) Basic test formulations of the product of Examples I, II, III, and of chlortetracycline were prepared by dissolving 16 mg (0.016 g) in 2.0 ml of stock emulsifier solution (0.25% Triton X-155 in acetone by volume) and making each solution up to 50 ml with deionized water. The concentration of the test compound in the basic formulation was 320 ppm. Lower concentrations of the test compound were obtained by diluting the basic formulation with a 4% solution of the stock emulsifier in deionized water so that each dilution in the series differed only in test compound content.
(§3) Nutrient-tryptic soy agar (NTA) consisting of 2.0% Difco Bactoagar 0.8% nutrient broth (Difco), and 0.5% tryptic soy broth (Difco) was prepared and sterilized by autoclaving. A 2 ml aliquot of each test formulation was added to 8 ml of molten NTA. This mixture was then plated in a sterile polystyrene petri dish (100 × 15 mm). After the agar was set, suspensions of each of the test organisms were simultaneously streaked onto the surface of the agar. The inoculated plates were incubated for 48 hr at 28°C. The inhibition of growth of each organism was rated by visual comparison with the organism developing on non-treated agar. Growth inhibition reported as per cent control was rated in three categories as follows: 0% control, growth equivalent to that on non-treated agar; 50% control, sparse development and separated colonies; 100% control, no visible growth or development of colonies.
(§4) Test formulations of the product of Example IV were examined for bactericidal and/or bacteriostatic activity against the test organisms shown in Table B using the Bactericide Test described in Example V. The inhibition of organism growth with each diluted test formulation was rated visually by comparison with the organism developing on a non-treated control agar plate. Growth inhibition reported as per cent control was rated in three categories as follows: 0% control, growth equivalent to that on non-treated agar; 50% control is sparse development and separated colonies; and 100% control, development of individual colonies was not apparent.

Salmonella typhimurium = test: Bactericide test, Salmonella typhimurium (agar streak plate); settings: Salmonella enterica, TYPHIMURIUM
Text: as §1, §2, §3

Streptococcus agalactiae = test: Bactericide test, Streptococcus agalactiae (agar streak plate)
How it was run: (§5)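 Compounds were formulated with Triton X-155/acetone emulsifier (basic formulation 320 ppm, serially diluted) and mixed 2:8 into molten nutrient-tryptic soy agar. Organisms were streaked onto the plates and incubated 48 hr at 28°C. Growth inhibition was scored visually against untreated agar as 0, 50 or 100% control.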

[1] = system: Bordetella bronchiseptica; test: Bactericide test, Bordetella bronchiseptica (agar streak plate)
How it was run: as §5

Salmonella cholerasuis = test: Bactericide test, Salmonella cholerasuis (agar streak plate); settings: Salmonella
How it was run: (§6)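 Compounds in Triton X-155/acetone emulsifier (basic formulation 320 ppm, diluted serially) were mixed 2:8 into molten nutrient-tryptic soy agar, then organisms streaked on the set plates. After 48 hr at 28°C, growth was scored visually against untreated agar as 0%, 50% (sparse, separated colonies) or 100% control (no visible colonies).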

[2] = system: Erysipelothrix rhusiopathiae; test: Bactericide test, Erysipelothrix rhusiopathiae (agar streak plate)
How it was run: as §5

Streptococcus faecalis = test: Bactericide test, Streptococcus faecalis (agar streak plate)
How it was run: as §6

Salmonella gallinarum = test: Bactericide test, Salmonella gallinarum (agar streak plate); settings: Salmonella enterica, GALLINARUM
How it was run: as §6

Streptococcus group E = test: Bactericide test, Streptococcus group E (agar streak plate)
How it was run: as §5

Escherichia coli = test: Bactericide test, Escherichia coli (agar streak plate)
Text: as §1, §2, §3, §4

Vibrio coli = test: Bactericide test, Vibrio coli (agar streak plate)
How it was run: as §5

[3] = 100% inhibition at lower concentrations

O=[N+]([O-])c1ccc(C=Cc2nc(Nc3ccc(O)cc3)c3ccccc3n2)o1 [Example I, 2-[2-(5-nitro-2-furyl)vinyl]-4-(p-hydroxyanilino)quinazoline]
0%: inhibition at 0.125 ppm (Staphylococcus aureus; 0.125 ppm) | inhibition at 0.25 ppm (Staphylococcus aureus; 0.25 ppm) | inhibition at 0.5 ppm (Staphylococcus aureus; 0.5 ppm) | inhibition at 1 ppm (Staphylococcus aureus; 1 ppm, read-out: % Inhibition) | inhibition at 2 ppm (Staphylococcus aureus; 2 ppm) | inhibition at 4 ppm (Staphylococcus aureus; 4 ppm, read-out: % Inhibition) | inhibition at 8 ppm (Staphylococcus aureus; 8 ppm) | inhibition at 16 ppm (Staphylococcus aureus; 16 ppm, read-out: % Inhibition) | inhibition at 32 ppm (Staphylococcus aureus; 32 ppm) | inhibition at 64 ppm (Staphylococcus aureus; 64 ppm, read-out: % Inhibition) | inhibition at 0.125 ppm (Salmonella typhimurium; 0.125 ppm) | inhibition at 0.25 ppm (Salmonella typhimurium; 0.25 ppm) | inhibition at 0.5 ppm (Salmonella typhimurium; 0.5 ppm) | inhibition at 1 ppm (Salmonella typhimurium; 1 ppm, read-out: % Inhibition) | inhibition at 2 ppm (Salmonella typhimurium; 2 ppm) | inhibition at 4 ppm (Salmonella typhimurium; 4 ppm, read-out: % Inhibition) | inhibition at 8 ppm (Salmonella typhimurium; 8 ppm) | inhibition at 16 ppm (Salmonella typhimurium; 16 ppm, read-out: % Inhibition) | inhibition at 32 ppm (Salmonella typhimurium; 32 ppm) | inhibition at 64 ppm (Salmonella typhimurium; 64 ppm, read-out: % Inhibition) | inhibition at 0.125 ppm (Salmonella cholerasuis; 0.125 ppm) | inhibition at 0.25 ppm (Salmonella cholerasuis; 0.25 ppm) | inhibition at 0.5 ppm (Salmonella cholerasuis; 0.5 ppm) | inhibition at 1 ppm (Salmonella cholerasuis; 1 ppm, read-out: % Inhibition) | inhibition at 2 ppm (Salmonella cholerasuis; 2 ppm) | inhibition at 4 ppm (Salmonella cholerasuis; 4 ppm, read-out: % Inhibition) | inhibition at 8 ppm (Salmonella cholerasuis; 8 ppm) | inhibition at 16 ppm (Salmonella cholerasuis; 16 ppm, read-out: % Inhibition) | inhibition at 32 ppm (Salmonella cholerasuis; 32 ppm) | inhibition at 64 ppm (Salmonella cholerasuis; 64 ppm, read-out: % Inhibition) | inhibition at 0.125 ppm (Salmonella gallinarum; 0.125 ppm) | inhibition at 0.25 ppm (Salmonella gallinarum; 0.25 ppm) | inhibition at 0.5 ppm (Salmonella gallinarum; 0.5 ppm) | inhibition at 1 ppm (Salmonella gallinarum; 1 ppm) | inhibition at 2 ppm (Salmonella gallinarum; 2 ppm) | inhibition at 4 ppm (Salmonella gallinarum; 4 ppm) | inhibition at 8 ppm (Salmonella gallinarum; 8 ppm) | inhibition at 16 ppm (Salmonella gallinarum; 16 ppm) | inhibition at 32 ppm (Salmonella gallinarum; 32 ppm) | inhibition at 64 ppm (Salmonella gallinarum; 64 ppm) | inhibition at 0.125 ppm (Escherichia coli; 0.125 ppm) | inhibition at 0.25 ppm (Escherichia coli; 0.25 ppm) | inhibition at 0.5 ppm (Escherichia coli; 0.5 ppm) | inhibition at 1 ppm (Escherichia coli; 1 ppm, read-out: % Inhibition) | inhibition at 2 ppm (Escherichia coli; 2 ppm) | inhibition at 4 ppm (Escherichia coli; 4 ppm, read-out: % Inhibition) | inhibition at 8 ppm (Escherichia coli; 8 ppm) | inhibition at 16 ppm (Escherichia coli; 16 ppm, read-out: % Inhibition) | inhibition at 32 ppm (Escherichia coli; 32 ppm) | inhibition at 64 ppm (Escherichia coli; 64 ppm, read-out: % Inhibition)
100%: inhibition at 0.125 ppm (Streptococcus agalactiae; Streptococcus agalactiae, 0.125 ppm) | inhibition at 0.25 ppm (Streptococcus agalactiae; Streptococcus agalactiae, 0.25 ppm) | inhibition at 0.5 ppm (Streptococcus agalactiae; Streptococcus agalactiae, 0.5 ppm) | inhibition at 1 ppm (Streptococcus agalactiae; Streptococcus agalactiae, 1 ppm, read-out: % Inhibition) | inhibition at 2 ppm (Streptococcus agalactiae; Streptococcus agalactiae, 2 ppm) | inhibition at 4 ppm (Streptococcus agalactiae; Streptococcus agalactiae, 4 ppm, read-out: % Inhibition) | inhibition at 8 ppm (Streptococcus agalactiae; Streptococcus agalactiae, 8 ppm) | inhibition at 16 ppm (Streptococcus agalactiae; Streptococcus agalactiae, 16 ppm, read-out: % Inhibition) | inhibition at 32 ppm (Streptococcus agalactiae; Streptococcus agalactiae, 32 ppm) | inhibition at 64 ppm (Streptococcus agalactiae; Streptococcus agalactiae, 64 ppm, read-out: % Inhibition) | inhibition at 0.125 ppm ([1]; Bordetella bronchiseptica, 0.125 ppm) | inhibition at 0.25 ppm ([1]; Bordetella bronchiseptica, 0.25 ppm) | inhibition at 0.5 ppm ([1]; Bordetella bronchiseptica, 0.5 ppm) | inhibition at 1 ppm ([1]; Bordetella bronchiseptica, 1 ppm, read-out: % Inhibition) | inhibition at 2 ppm ([1]; Bordetella bronchiseptica, 2 ppm) | inhibition at 4 ppm ([1]; Bordetella bronchiseptica, 4 ppm, read-out: % Inhibition) | inhibition at 8 ppm ([1]; Bordetella bronchiseptica, 8 ppm) | inhibition at 16 ppm ([1]; Bordetella bronchiseptica, 16 ppm, read-out: % Inhibition) | inhibition at 32 ppm ([1]; Bordetella bronchiseptica, 32 ppm) | inhibition at 64 ppm ([1]; Bordetella bronchiseptica, 64 ppm, read-out: % Inhibition) | inhibition at 0.125 ppm ([2]; Erysipelothrix rhusiopathiae, 0.125 ppm) | inhibition at 0.25 ppm ([2]; Erysipelothrix rhusiopathiae, 0.25 ppm) | inhibition at 0.5 ppm ([2]; Erysipelothrix rhusiopathiae, 0.5 ppm) | inhibition at 1 ppm ([2]; Erysipelothrix rhusiopathiae, 1 ppm) | inhibition at 2 ppm ([2]; Erysipelothrix rhusiopathiae, 2 ppm) | inhibition at 4 ppm ([2]; Erysipelothrix rhusiopathiae, 4 ppm) | inhibition at 8 ppm ([2]; Erysipelothrix rhusiopathiae, 8 ppm) | inhibition at 16 ppm ([2]; Erysipelothrix rhusiopathiae, 16 ppm) | inhibition at 32 ppm ([2]; Erysipelothrix rhusiopathiae, 32 ppm) | inhibition at 64 ppm ([2]; Erysipelothrix rhusiopathiae, 64 ppm) | inhibition at 0.125 ppm (Streptococcus faecalis; Enterococcus faecalis, 0.125 ppm) | inhibition at 0.25 ppm (Streptococcus faecalis; Enterococcus faecalis, 0.25 ppm) | inhibition at 0.5 ppm (Streptococcus faecalis; Enterococcus faecalis, 0.5 ppm) | inhibition at 1 ppm (Streptococcus faecalis; Enterococcus faecalis, 1 ppm, read-out: % Inhibition) | inhibition at 2 ppm (Streptococcus faecalis; Enterococcus faecalis, 2 ppm) | inhibition at 4 ppm (Streptococcus faecalis; Enterococcus faecalis, 4 ppm, read-out: % Inhibition) | inhibition at 8 ppm (Streptococcus faecalis; Enterococcus faecalis, 8 ppm) | inhibition at 16 ppm (Streptococcus faecalis; Enterococcus faecalis, 16 ppm, read-out: % Inhibition) | inhibition at 32 ppm (Streptococcus faecalis; Enterococcus faecalis, 32 ppm) | inhibition at 64 ppm (Streptococcus faecalis; Enterococcus faecalis, 64 ppm, read-out: % Inhibition) | inhibition at 0.125 ppm (Streptococcus group E; 0.125 ppm) | inhibition at 0.25 ppm (Streptococcus group E; 0.25 ppm) | inhibition at 0.5 ppm (Streptococcus group E; 0.5 ppm) | inhibition at 1 ppm (Streptococcus group E; 1 ppm, read-out: % Inhibition) | inhibition at 2 ppm (Streptococcus group E; 2 ppm) | inhibition at 4 ppm (Streptococcus group E; 4 ppm, read-out: % Inhibition) | inhibition at 8 ppm (Streptococcus group E; 8 ppm) | inhibition at 16 ppm (Streptococcus group E; 16 ppm, read-out: % Inhibition) | inhibition at 32 ppm (Streptococcus group E; 32 ppm) | inhibition at 64 ppm (Streptococcus group E; 64 ppm, read-out: % Inhibition) | inhibition at 0.125 ppm (Vibrio coli; Campylobacter coli, 0.125 ppm) | inhibition at 0.25 ppm (Vibrio coli; Campylobacter coli, 0.25 ppm) | inhibition at 0.5 ppm (Vibrio coli; Campylobacter coli, 0.5 ppm) | inhibition at 1 ppm (Vibrio coli; Campylobacter coli, 1 ppm) | inhibition at 2 ppm (Vibrio coli; Campylobacter coli, 2 ppm) | inhibition at 4 ppm (Vibrio coli; Campylobacter coli, 4 ppm) | inhibition at 8 ppm (Vibrio coli; Campylobacter coli, 8 ppm) | inhibition at 16 ppm (Vibrio coli; Campylobacter coli, 16 ppm) | inhibition at 32 ppm (Vibrio coli; Campylobacter coli, 32 ppm) | inhibition at 64 ppm (Vibrio coli; Campylobacter coli, 64 ppm)
considerably more effective: effectiveness compared with chlortetracycline (in words) (Streptococcus agalactiae; [3]) | effectiveness compared with chlortetracycline (in words) [1, 3] | effectiveness compared with chlortetracycline (in words) [2, 3] | effectiveness compared with chlortetracycline (in words) (Streptococcus faecalis; [3]) | effectiveness compared with chlortetracycline (in words) (Streptococcus group E; [3]) | effectiveness compared with chlortetracycline (in words) (Vibrio coli; [3])
